Here are results for three compounds from US20160324885A1, “COMPOSITION CONTAINING MODIFIED DERIVATIVES OF A CYTIDINE ANTIMETABOLITE FOR THE TREATMENT OF SUSCEPTIBLE DISEASE” (ASTERIAPHARMA GMBH, priority 2013, published 2016).

For series [1], the system named is HeLa cells. Kind of series: WST-1 cell proliferation assay, HeLa cells. Type of series: cell-based, human. Also on record: dose or concentration left out as unconfirmed. The following applies: 5 days after start of treatment, WST-1, relative to untreated cells. The method, then:
FIG. 1. Inhibition of proliferation of human cancer cells treated with either dFdC or homo-oligomers and hetero-oligomers containing dFdC. HeLa cells growing on 96-well plates (5000 cells/well) were treated with: 1) TpF; 2) FpF; 3) TpFpF; 4) FpFpF; 5) dFdC. The concentration of drug in the culture medium […]. Cell proliferation was measured 5 days after treatment was started using the WST-1 assay. The mean value obtained with untreated cells was set at 1.
Methods: Cervical cancer cell lines (HeLa, SiHa, CaSki and C-33) were cultured at 37° C./5% CO2 in medium containing DMEM with Glutamax™, 1 mM sodium pyruvate, penicillin/streptomycin (PS) and 10% fetal bovine serum (FBS) (Invitrogen/LifeTechnologies). […] The cells were incubated with WST-1 for 1 hour at 37° C./5% CO2, then the amount of formazan dye produced was quantified using a scanning spectrophotometer (ELISA plate reader). The absorbance was measured with a test wavelength at 450 nm and a reference wavelength at 630 nm. Then, the 630 nm background absorbance was subtracted from the 450 nm measurement. […]
2) The FpFpF trinucleotide was tested in comparison with dFdC for its ability to inhibit cell growth of tumor cells of different origin: pancreatic cancer (MIA PaCa-2, ASPC) cervical (HeLa, CaSki, C33A) and hepatic (Huh-7) cancers. […] At this time cell proliferation was quantified using the WST-1 assay as described above. […]
For orientation: Formazan colour is commonly taken as a measure of viable cells.

The subject of series [2] is HeLa cells. Kind of series: HeLa xenograft tumor growth delay in immunodeficient mice. Type of series: in vivo. The following applies: 10 mg/kg intraperitoneally every fourth day, four doses. The method, then:
Objective: To compare the anti-tumor activities of FpFpF trinucleotide and dFdC in vivo in a xenograft model. HeLa cells and immunodeficient mice were used in this assay as described below.
Methods. Immunodeficient CAnN.Cg-Fox1^nu/Cr1 (BALB/c) mice (The Jackson Laboratories) are well suited for the xenotransplantation of human tumors. HeLa cells (5×10^6) were mixed 1:1 with matrigel in a final volume of 0.1 ml and then injected subcutaneously in the right flank of each mouse. Treatments were initiated at the time when the tumor volume reached approximately 200 mm^3. The drugs (FpFpF trinucleotide or dFdC) were administered intraperitoneally at 10 mg/kg every fourth day for a total of four doses. Tumor volumes were calculated with the ellipsoid volume formula (L×W×H×π/6) (Tomayko and Reynolds, 1989). Tumor volume values were transformed to a log scale. A two-way analysis of variance by time and treatment was used. The data are finally expressed as means and standard errors for each treatment group against time. A Weibull distribution was assumed to calculate mean times and standard errors for each treatment group. Tumor growth delay was defined as the difference in mean time between each treated group and the control group.

The test system of a further series is Panc-1 cells. Kind of series: Inhibition of proliferation of Panc-1 cells. In kind it is cell-based. The following applies: Homo sapiens, read-out: ID50 (the source's name). The method, then: Methods: The FpFpF trinucleotide was coupled to lipid as described in the Example 3 for the Palmitoyl-trinucleotide (5′-FpFpF-3′-Pal). Panc-1 cells were plated one day before treatment at a density of 5000 cells/well in a 96-well plate with 100 μl/well of medium RPMI/Glutamax™/1 mM sodium pyruvate/PS/10% FBS and cultured at 37° C./5% CO2. Treatments (6 wells per condition) with wither dFdC, FpFpF and FpFpF-Pal were carried out at the indicated concentrations.

The subject of another series is MIA PaCa-2 cells. Kind of series: Proliferation of MIA PaCa-2 cells treated with drug pre-incubated with human serum. The following applies: MIA PaCa-2, serum pre-incubation 2 hours at 37° C., then 72 hours on cells. Type of series: cell-based. The method, then:
(§1) Methods: The cells were seeded in 96-well plates one day before treatment at a density of 5000 cells/well in 100 μl/well of medium DMEM/Glutamax™/1 mM sodium pyruvate/PS/10%/FBS and cultured at 37° C./5% CO2. Separate serum dilutions of dFdC and FpFpF trinucleotide were prepared from 1 mM stock solutions to a final concentration of 20 μmol/L. The sera aliquots containing either drug were incubated at 37° C./5% CO2 for the indicated times before they were added to the cells to the indicated final concentrations. The cells were incubated for further 72 hours after which the cell proliferation was quantified using the WST-1 assay. Two controls were run in parallel: untreated cells and cells treated with dFdC or FpFpF trinucleotides that were not incubated with serum.

The conditions of series [3]: following intravenous administration; cited from earlier work.
The conditions of series [4]: in vivo; cited from earlier work.
The conditions of series [5]: mice, normal tissues and subcutaneous sarcoma tissue; cited from earlier work.
The subject of series [6] is HeLa cells. Kind of series: Proliferation of HeLa cells treated with drug pre-incubated with human serum. Type of series: cell-based. The conditions noted are these: serum pre-incubation 2 hours at 37° C., then 72 hours on cells. The method, then: as §1

For the compound “2′-deoxy-2′,2′-difluorocytidinyl 3′-5′ phosphate 2′-deoxy-2′,2′-difluorocytidine [FpF]”, the “inhibition of cell proliferation” value in the series on HeLa cells [1] is recorded as ~56%.
As for `Nc1ccn([C@@H]2O[C@H](CO)[C@@H](O)C2(F)F)c(=O)n1` [dFdC, 2′.2′-difluoro 2′-deoxycytidine], the “Tumor Growth Delay at 500 mm^3, Mean ± S.E.M.” value in the series on HeLa cells [2] (tumor size 500 mm^3) was found to be 2.8 ± 0.3 days. Further, the “Tumor Growth Delay at 700 mm^3, Mean ± S.E.M.” value in the series with HeLa cells [2] (tumor size 700 mm^3) amounted to 4.9 ± 0.6 days. In addition, the “Tumor Growth Delay at 900 mm^3, Mean ± S.E.M.” value in the series on HeLa cells [2] (tumor size 900 mm^3) is 7.7 ± 0.5 days. The IC50 in the series on Panc-1 cells stood at 12.2 µM. The figures for the “inhibition of proliferation after pre-incubation of drug with human serum” value with MIA PaCa-2 cells and in the series on HeLa cells [6] were 10% and 5%, respectively. The “half-life in the human plasma” value in series [3] was 8 to 17 min. For the same compound, the “excreted unprocessed in the urine” value in series [4] was “less than 10%”. Moreover, the “time radiolabeled dFdC remains in tissues” value in series [5] is given as “up to 3 hours”.
“thymidinyl 3′-5′ phosphate 2′-deoxy-2′,2′-difluorocytidine [TpF]”: the “inhibition of cell proliferation” value with HeLa cells [1] came out at 19%.
